The values below come from patent publication US20220074923A1, “METHODS OF IDENTIFYING PARKIN-MEDIATED MITOPHAGY ACTIVATING AGENTS” (THE GOVERNING COUNCIL OF THE UNIVERSITY OF TORONTO, priority 2018, published 2022).

The test system of data set [1] is HEK293 GFP Parkin cells. As to the kind of experiment: High throughput small molecule screen for Parkin recruitment to mitochondria (high content imaging). It counts as cell-based. The following applies: for rank in the kinase inhibitor library screen (rank order by z-score): 4 μM, 16 h, then CCCP 2 h, rank out of 480, low rank = activator of Parkin recruitment, high rank = inhibitor; for % of cells with mitochondrial Parkin: CCCP only (DMSO pinned). As for the experimental part:
10 uL of 0.1 mg/mL Poly-D-Lys solution was added to 384-well plates for 5 minutes, followed by a PBS wash. Plates were dried for at least 2 hours. 50 μL of 600 000 HEK293 GFP Parkin cell/mL of DMEM was dispensed into each well. After 24 hours incubation to allow the cells to adhere, 200 nL of small molecules (or DMSO in columns 1, 2, 23 and 24) were pinned. Following a 16-hour incubation, 200 nL of 5 mM CCCP were added to all wells except columns 1 and 2, into which 200 nL of DMSO was added. Following 2-hour incubation, cells were fixed with 4% paraformaldehyde (PFA) and stained with 50 μL of 1 μg/mL DAPI solution for 15 minutes. After the final PBS wash, plates were ready for high content microscopy.
Images were acquired on IN Cell Analyzer 6000 (GE Healthcare), equipped with sCMOS camera (2048×2048), and 20x/0.45 NA Plan Fluor objective (Nikon) in open aperture mode using 1×1 binning. Image analysis was performed using Columbus Image Analysis System (PerkinElmer). Nuclei were initially detected in DAPI channel, followed by whole cell segmentation in GFP channel. Using PhenoLOGIC machine learning plug-in, cells were split into 2 sub-populations: cells with even GFP-Parkin distribution and cells where GFP-Parkin was localized to mitochondria. The percentage of cells with mitochondrial GFP-Parkin was determined per well. The molecules were then rank ordered based on z-score, which is calculated using the formula: […]
where x is the percentage of cells with mitochondrial GFP-Parkin for a specific small molecule, μ is the average percentage of cells with mitochondrial Parkin in positive control columns 23 and 24, where cells are treated with CCCP only.
These cell lines were screened across 2 biological replicates with compounds from the kinase inhibitor (n=480) and Prestwick (n=1120) collections. The 3-day screening protocol consisted of (1) seeding cells, (2) pinning small molecules at 4 μM concentration and (3) inducing mitophagy with CCCP, followed by processing of plates for high content imaging. Following image acquisition, DAPI staining was used to segment cells within each image. Supervised machine learning was used to classify cells into two classes: (1) cells with cytosolic Parkin distribution and (2) those with Parkin localized to mitochondria. […] Compounds which increased the proportion of class 2 cells across 2 biological replicates, compared to the CCCP-only treated cells (FIG. 10), as indicated by their z-score (FIG. 11), were considered hits.

The subject of data set [2] is HeLa cells expressing GFP Parkin WT and mito-dsRed. As to the kind of experiment: Parkin recruitment after Ac220 pre-treatment and CCCP. It counts as cell-based. The following applies: Ac220 pre-treatment, 10 μM CCCP. As for the experimental part: (§1) A) HeLa cells expressing GFP Parkin WT and mito-dsRed were treated with either DMSO, 10 μM CCCP or 4 μM Ac220 in combination with CCCP. B) Cell lysates from HeLa cells pre-treated with either DMSO or 4 μM Ac220 prior to addition of 10 μM CCCP were separated by SDS-PAGE and immunoblotting was performed against Mfn2 and actin. C) Cells were pre-treated with either DMSO, 2 μM Ac220, 1 μM Ac220 prior to addition of 10 μM CCCP. D) Cells were pre-treated with indicated concentrations of Ac220 prior to addition of 10 μM CCCP for 1 hour. Cell lysates were separated by SDS-PAGE and immunoblotting was performed against Mfn2 and actin. E) Densitometry analysis of Mfn2 levels normalized to loading control […]. Data is presented as mean±s.d. F) HeLa GFP Parkin cells were transfected with HA-PINK1 and pre-treated with either DMSO or Ac220 prior to addition of CCCP and Mg132. G) HeLa GFP Parkin cells and H) SH-SY5Y cells were pre-treated with either DMSO or Ac220 prior to addition of CCCP for the indicated time. Immunoblotting was performed using antibodies against PINK1 and actin.

For data set [3], the system named is HeLa cells. As to the kind of experiment: Immunoblotting of Mfn2 degradation after Ac220 and CCCP. It counts as cell-based. As to conditions: Ac220 pre-treatment, 10 μM CCCP. As for the experimental part:
as §1
Lysates were harvested using lysis buffer (0.1M Tris HCl, 0.01% SDS, pH 9) with 1× protease inhibitor cocktail (BioShop, PIC002.1). […] 12% SDS-PAGE gels were used to run samples to be analyzed for LC3 conversation and for Tom20 and 10% gels were run for all other samples. […]
A general note: A western blot detects proteins with antibodies after separation by electrophoresis.

The next data set has as its system PINK1. As to the kind of experiment: PINK1 accumulation after mitochondrial damage (immunoblot). It counts as cell-based. As to conditions: Ac220 pre-treatment, CCCP; HeLa GFP Parkin and SH-SY5Y cells. Here is the method:
as §1

In data set [4] the test system is HeLa cells stably expressing GFP parkin and mito-DsRed. As to the kind of experiment: Mitochondrial clearance assay. It is filed as cell-based. The following applies: pre-treated with DMSO, 24 hour 10 μM CCCP. Here is the method: HeLa cells stably expressing GFP parkin and mito-DsRed were seeded into 12-well plates containing coverslips and allowed to adhere overnight. Cells were then treated with DMSO or 0.5 μM SR3677 for 2 hours prior to addition of 10 μM CCCP for 24 hours. Cells were then washed with PBS, fixed with 4% PFA and washed with PBS again prior to the mounting of coverslips onto glass slides. Mitochondrial clearance was quantified by counting the number of cells in each treatment to retain mito-DsRed signal. 3 independent trials were performed with at least 50 cells quantified per trial.

In another data set the test system is SH-SY5Y cells. As to the kind of experiment: Cell viability by crystal violet staining. As to conditions: CCCP alone, 24 hours. It is filed as cell-based. Here is the method:
A) SH-SY5Y cells were pre-treated with either DMSO or 0.5 μM SR3677 prior to addition of either DMSO or 10 μM CCCP for 24 hours. Following treatment, cells were washed, fixed with 4% paraformaldehyde and stained with crystal violet dye. B) The OD at 550 nm was measured to assess crystal violet staining.
To determine whether these findings could be translated into dopaminergic neurons, the study was continued in the dopaminergic neuroblastoma SH-SY5Y cell line. Parkin undergoes a similar CCCP-dependent subcellular transition from cytosol to mitochondria in these cells^12. First, whether the viability of these cells would be improved by SR3677 was investigated. Initially, experiments were conducted using crystal violet staining as an indicator of cell viability. […] Next, SH-SY5Y cells were differentiated into a more neuron-like population according to protocols previously described^10 and ATP levels were measured. […] Varying concentrations of SR3677 were co-administered alongside the PD-causing toxin paraquat.

Data set [5] has as its system HeLa cells. As to the kind of experiment: Mito-QC assay (targeting of mitochondria to lysosomes). It is filed as cell-based. As to conditions: 50 μM chloroquine 16 hours pre-treatment. As for the experimental part:
HeLa cells were seeded into 6-well plates containing glass coverslips and allowed to adhere overnight. Cells were co-transfected with RGOMP25 and Cerulean-Parkin plasmids 24 hours prior to treatments. E-64 and leupeptin were added along with either DMSO or 10 μM CCCP for 6 hours prior followed by a PBS wash, fixation with 4% PFA and a final PBS wash prior to mounting onto glass slides with Fluoromount.
Cells were treated with 50 μM chloroquine for 16 hours prior to addition of E64, leupeptin, SR3677 and CCCP in the indicated treatment group. For the in vivo mitoQC assays, 5 7-day old male TH-GAL4>UAS-mitoQC were placed into vials containing water (control), sublethal 1 mM paraquat, 1 mM SR3677 alone and in combination with paraquat for 7 days. […] Fly brains were mounted in VectaShield™ mounting medium for imaging using the Zeiss LSM700 confocal fluorescence microscope with 40× 1.4 NA Oil Plan-APOCRAMAT objective and the appropriate lasers and filter. […]
Quantification of the RG assay was done using Fiji software. […] A red/green fluorescence intensity ratio was determined for each pixel. Pixels were considered red-only if the red/green fluorescence ratio was greater than or equal to 1.5. The area of red-only pixels over the total non-background area was determined and averaged across 4 independent trials in which at least 20 cells were quantified per treatment.

Data set [6] deals with HEK293 GFP Parkin cells. As to the kind of experiment: Parkin recruitment assay. It counts as cell-based. As for the experimental part: HEK293 GFP Parkin cells were seeded into 12-well plates containing coverslips. Cells were treated with small molecules for 2 hours prior to mitophagy induction with 10 μM CCCP, unless indicated otherwise. Following fixation with 4% PFA, immunostaining was carried out using anti-ATP5A primary antibody and anti-mouse Alex Fluor 568.
To measure the percentage of cells with Parkin localized to mitochondria a 2 step process was employed: (1) whole cell segmentation based on GFP Parkin using CellProfiler software and (2) classification into Parkin distribution subpopulation using CellProfiler Analyst. The percentage of cells with Parkin localized to mitochondria was determined in each image. Images were taken at 20× magnification for this experiment, resulting in the classification of at least 300 cells in each treatment group per trial.

For the next data set, the target named is ROCK2 (Homo sapiens, UniProt O75116). As to conditions: biochemical and cell-based assays, previous studies; cited from earlier work.
Sequence of ROCK2 (O75116 whole entry): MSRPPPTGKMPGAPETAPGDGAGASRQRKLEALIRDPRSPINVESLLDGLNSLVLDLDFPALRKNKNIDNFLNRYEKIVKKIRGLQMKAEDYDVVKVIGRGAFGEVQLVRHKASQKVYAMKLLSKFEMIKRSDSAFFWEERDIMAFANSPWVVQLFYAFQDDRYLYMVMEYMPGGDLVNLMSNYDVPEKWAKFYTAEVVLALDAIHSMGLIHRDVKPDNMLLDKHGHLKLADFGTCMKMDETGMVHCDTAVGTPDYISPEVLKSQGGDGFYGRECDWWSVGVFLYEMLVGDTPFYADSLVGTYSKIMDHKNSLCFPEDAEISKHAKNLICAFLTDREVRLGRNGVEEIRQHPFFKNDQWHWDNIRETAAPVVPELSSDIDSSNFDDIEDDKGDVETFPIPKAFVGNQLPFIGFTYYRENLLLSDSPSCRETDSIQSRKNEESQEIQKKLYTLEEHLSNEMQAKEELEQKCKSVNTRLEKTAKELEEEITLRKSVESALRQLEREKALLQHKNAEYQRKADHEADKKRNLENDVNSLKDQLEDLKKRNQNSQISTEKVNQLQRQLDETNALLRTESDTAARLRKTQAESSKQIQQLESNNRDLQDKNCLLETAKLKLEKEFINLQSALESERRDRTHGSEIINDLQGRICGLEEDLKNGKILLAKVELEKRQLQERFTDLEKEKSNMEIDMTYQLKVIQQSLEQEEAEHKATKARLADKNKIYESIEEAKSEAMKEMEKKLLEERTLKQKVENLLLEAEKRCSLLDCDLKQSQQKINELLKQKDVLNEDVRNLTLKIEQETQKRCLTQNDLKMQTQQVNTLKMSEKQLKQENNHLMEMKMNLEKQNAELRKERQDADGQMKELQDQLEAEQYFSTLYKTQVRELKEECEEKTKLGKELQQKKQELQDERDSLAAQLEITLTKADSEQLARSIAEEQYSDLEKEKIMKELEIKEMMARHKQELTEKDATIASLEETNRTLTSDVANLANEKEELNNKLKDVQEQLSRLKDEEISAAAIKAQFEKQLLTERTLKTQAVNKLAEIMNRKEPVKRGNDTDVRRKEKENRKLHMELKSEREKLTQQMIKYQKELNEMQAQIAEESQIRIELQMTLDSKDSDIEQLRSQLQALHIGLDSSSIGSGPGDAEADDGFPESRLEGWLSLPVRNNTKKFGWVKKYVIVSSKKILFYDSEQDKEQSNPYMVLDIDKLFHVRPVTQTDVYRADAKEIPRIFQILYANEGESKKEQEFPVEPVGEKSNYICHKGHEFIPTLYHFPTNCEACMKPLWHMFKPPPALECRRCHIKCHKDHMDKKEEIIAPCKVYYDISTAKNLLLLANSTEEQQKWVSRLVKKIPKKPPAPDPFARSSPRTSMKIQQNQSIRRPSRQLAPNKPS
For another data set, the target named is ROCK1 (Homo sapiens, UniProt Q13464). The following applies: biochemical and cell-based assays, review; cited from earlier work.
Sequence of ROCK1 (Q13464 whole entry, species assumed): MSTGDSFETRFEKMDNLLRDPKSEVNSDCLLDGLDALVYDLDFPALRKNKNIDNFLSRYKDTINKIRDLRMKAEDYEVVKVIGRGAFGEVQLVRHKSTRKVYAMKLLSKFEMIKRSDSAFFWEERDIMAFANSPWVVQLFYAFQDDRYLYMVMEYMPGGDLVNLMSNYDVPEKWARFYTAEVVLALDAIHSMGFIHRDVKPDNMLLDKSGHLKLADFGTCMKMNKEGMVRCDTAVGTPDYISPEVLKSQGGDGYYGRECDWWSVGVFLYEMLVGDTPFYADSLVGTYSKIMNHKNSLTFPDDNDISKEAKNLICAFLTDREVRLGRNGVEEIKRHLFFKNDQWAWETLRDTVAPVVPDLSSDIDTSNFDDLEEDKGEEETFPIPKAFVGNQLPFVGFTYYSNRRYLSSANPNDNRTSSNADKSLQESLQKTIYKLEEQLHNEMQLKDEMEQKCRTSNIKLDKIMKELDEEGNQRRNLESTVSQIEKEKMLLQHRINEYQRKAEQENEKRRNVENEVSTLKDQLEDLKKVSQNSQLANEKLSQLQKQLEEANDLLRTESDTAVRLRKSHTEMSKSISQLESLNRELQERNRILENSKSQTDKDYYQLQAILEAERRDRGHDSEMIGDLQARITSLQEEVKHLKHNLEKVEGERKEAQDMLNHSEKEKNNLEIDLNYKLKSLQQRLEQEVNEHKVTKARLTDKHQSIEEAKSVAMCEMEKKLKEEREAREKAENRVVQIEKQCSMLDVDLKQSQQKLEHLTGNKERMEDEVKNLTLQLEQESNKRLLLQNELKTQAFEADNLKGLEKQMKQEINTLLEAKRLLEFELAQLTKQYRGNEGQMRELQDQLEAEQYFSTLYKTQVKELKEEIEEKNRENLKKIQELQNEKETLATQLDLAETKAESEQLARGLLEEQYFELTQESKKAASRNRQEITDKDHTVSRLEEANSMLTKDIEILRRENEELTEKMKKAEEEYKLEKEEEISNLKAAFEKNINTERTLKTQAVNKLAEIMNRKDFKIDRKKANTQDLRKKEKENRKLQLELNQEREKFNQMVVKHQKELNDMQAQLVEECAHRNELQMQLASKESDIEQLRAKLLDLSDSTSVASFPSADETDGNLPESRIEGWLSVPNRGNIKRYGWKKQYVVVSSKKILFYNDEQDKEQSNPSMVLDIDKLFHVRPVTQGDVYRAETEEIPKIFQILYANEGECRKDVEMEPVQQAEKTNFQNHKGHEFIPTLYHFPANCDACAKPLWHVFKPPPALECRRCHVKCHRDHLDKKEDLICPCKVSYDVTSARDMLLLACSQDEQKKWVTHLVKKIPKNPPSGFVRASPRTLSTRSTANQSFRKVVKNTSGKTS
The conditions of data set [7]: cited from earlier work.
The conditions of data set [8]: used in Japan; cited from earlier work.

For the molecule `CC(C)(C)c1cc(NC(=O)Nc2ccc(-c3cn4c(n3)sc3cc(OCCN5CCOCC5)ccc34)cc2)no1` [Ac220], the “rank in the kinase inhibitor library screen (rank order by z-score)” value in the data set on HEK293 GFP Parkin cells [1] is on record as 475/480. Also, in [2], the Parkin recruitment result is recorded as “inhibited Parkin recruitment”. In the data set on HeLa cells [3], the “degradation of Mfn2” value is on record as “inhibited”. Further, the “PINK1 accumulation in response to mitochondrial damage” value in the data set with PINK1 is reported as “fails to accumulate”.

Turning to `N#CC(C#N)=NNc1cccc(Cl)c1` [CCCP, carbonyl cyanide m-chlorophenylhydrazone], the “% of cells with mitochondrial Parkin” value in the data set on HEK293 GFP Parkin cells [1] (Prestwick library screen) was found to be 71.2±2.6%; in the data set on HEK293 GFP Parkin cells [1] (kinase inhibitor library screen), 83.4±2.3%. Also, the “% of cells that retained mito-DsRed” value in [4] is on record as 47.5±8.25%. For the same molecule, the crystal violet staining entry in the data set on SH-SY5Y cells is recorded as “reduced the amount of staining”.

With `CCN(CC)CCCC(C)Nc1ccnc2cc(Cl)ccc12` (centres unmarked) [chloroquine], the “effect on SR3677-mediated enhancement of mitophagy” value with HeLa cells [5] is recorded as “abrogates SR3677-mediated enhancement of mitophagy”.

Turning to `C[C@@H](N)[C@H]1CC[C@H](C(=O)Nc2ccncc2)CC1` [Y27632], the “rank in the kinase inhibitor library screen (rank order by z-score)” value with HEK293 GFP Parkin cells [1] was 9/480. In addition, the “Parkin recruitment on re-test” value in the data set with HEK293 GFP Parkin cells [6] (10 μM, 2-hour treatment, CCCP) was “recapitulated the effects observed following overnight incubation”. The “Parkin distribution in the absence of CCCP” value with HEK293 GFP Parkin cells [6] (compound alone) is “diffuse”. The ROCK2 inhibition result at ROCK2 is “sufficiently inhibit both ROCK1 and ROCK2”. The ROCK1 inhibition result at ROCK1 is “sufficiently inhibit both ROCK1 and ROCK2”. In data set [7], the cell permeability result is reported as “poor cell permeability”.

As for `O=S(=O)(c1cccc2cnccc12)N1CCCNCC1` [Fasudil], the “class in the screen (FIG. 1b)” value in the data set with HEK293 GFP Parkin cells [1] (ROCK inhibitors, 4 μM plus CCCP) is “Enhancers of Parkin recruitment”. In addition, in [8], the “safety and efficacy in vasospasm following subarachnoid hemorrhage” value was “safety and efficacy”.
